According to patent publication US10316056B2, “Chemical compounds and use thereof for improving muscular quality” (BIOPHYTIS, priority 2014, dated 2019):

Experiments:
[1] = system: S6 kinase (S6K1) phosphorylation in C2C12 cells; assay: Phosphorylation of the S6 kinase in C2C12 cells (ELISA pS6K T389), protein synthesis; assay type: cell-based, mouse; settings: Mus musculus, C2C12, 2 h; for activity at 10 µM: read-out: Protein synthesis (percentage increase in S6K phosphorylation in muscle cells); for activity: test compounds and 20E reference (10 μM), read-out: S6K1 phosphorylation level
Description: After several experiments in which the C2C12 cells differentiated into myotubes were incubated in the presence of IGF-1 or 20E for 2 h 30 or 6 h, two screening tests were developed. Thus, the phosphorylation of the S6 protein kinase and the expression of the myostatin gene were studied in order to determine their modulation by a growth hormone or an ecdysone and to characterize these modulations from a statistical point of view.
The C2C12 myoblast cells (ATCC CRL-1772) are seeded into 6-well plates at a density of 170 000 cells per well and cultured in a DMEM medium containing glucose in a proportion of 4.5 g/l and supplemented with fetal calf serum (10%) and with antibiotics (penicillin and streptomycin). Forty-eight hours later, the myoblasts are induced to differentiate by partial serum depletion (2% instead of 10%) for 5 days. The cells are then placed in a medium which is glucose-depleted (DMEM containing 1 g/l of glucose) and serum-free in the presence of the test molecules or of the references (100 ng/ml IGF-1 or 10 μM 20E) for 2 h. At the end of the experiment, the cells are lysed in a commercial lysis buffer (Invitrogen FNN0011) supplemented with a commercial mixture of anti-proteases (Roche 05056489001). After centrifugation, the cytoplasmic fraction containing the soluble proteins is kept and the protein concentration is determined using a commercial kit (Biorad 500-0114), the principle of which is composed of assaying by the Lowry method. The assaying of the S6 kinase phosphorylation is carried out using a commercial ELISA (Enzyme Linked ImmunoSorbent Assay) kit (Cell signaling 7063). Briefly, 50 μg of protein lysate are deposited in the wells of a 96-well microplate and incubated overnight at 4° C. with the solution of antigen specific for the pS6 kinase threonine 389 antibody. The binding of the antigen to the bottom of the wells is done electrostatically. The solution of antibody to be assayed (pS6K T389) is then incubated at 37° C. in the wells for 2 hours. The antibodies bind specifically to the antigen. The wells are then washed with washing buffer in order to remove the antigen-specific primary antibodies to be assayed which are in excess. The third step consists in binding the detection antibody. The solution of detection antibodies is incubated at 37° C. in the wells for 1 hour. The wells are then washed in order to remove the excess detection antibodies. It should be noted that the detection antibodies are coupled to an enzyme which, in the presence of its substrate, converts it into a reaction product that can be detected and measured by virtue of the appearance of a coloration. […] The appearance of a blue coloration in the substrate indicates the presence of the antibody to be assayed. In order to prevent any saturation phenomenon, a stop solution (generally containing […]) is added and brings about a change in coloration, which goes from blue to yellow. The strength thereof is proportional to the amount of enzyme present and thus to the concentration of antibody sought. The strength of the signal is measured using spectrophotometry at a wavelength of 450 nm.

[2] = system: myostatin gene expression in C2C12 cells; assay: Inhibition of myostatin expression in C2C12 cells (qPCR); assay type: cell-based; settings: Mus musculus, percentage myostatin gene expression in cells in contact with the compounds related to control cells, C2C12, 6 h
Description: After several experiments in which the C2C12 cells differentiated into myotubes were incubated in the presence of IGF-1 or 20E for 2 h 30 or 6 h, two screening tests were developed. Thus, the phosphorylation of the S6 protein kinase and the expression of the myostatin gene were studied in order to determine their modulation by a growth hormone or an ecdysone and to characterize these modulations from a statistical point of view. The C2C12 myoblast cells (ATCC CRL-1772) are seeded into 24-well plates at a density of 30 000 cells per well and cultured in a DMEM medium containing glucose in a proportion of 4.5 g/l and supplemented with fetal calf serum (10%) and with antibiotics (penicillin and streptomycin). Forty-eight hours later, the myoblasts are induced to differentiate by partial serum depletion (2% instead of 10%) for 5 days. The cells are then placed in a medium which is glucose-depleted (DMEM containing 1 g/l of glucose) and serum-free in the presence of the test molecules or of the references (100 ng/ml IGF-1 or 10 μ[…]) for 6 h. At the end of the experiment, the messenger RNAs (mRNAs) are extracted using the conventional methodology based on phenol and chloroform. Briefly, the cells are lysed in a Trizol solution (Sigma T9424) containing a strong acid and phenol. The mRNAs are separated from the proteins by addition of chloroform and then centrifugation. They are then precipitated from isopropanol and then suspended at a concentration of 1 μg/μl in an […] ultrapure water. 1 μg of mRNA is then converted by reverse transcription into complementary DNA by the AMV enzyme in the presence of a primer and of a mixture of nucleotides according to the protocol given by the supplier (Applied Biosystems 4368814). […] The qPCRs are carried out on a 7900HT Fast real-Time PCR detection system (Applied Biosystems). The programming conditions are standard and consist of 1 cycle at 95° C. for 15 min, followed by 40 cycles at 95° C. for 15 s and at 60° C. for 1 min and the program ends with a melt curve step between 60° C. and 95° C. […] Fluorescent probes bind to the double-stranded DNA and are fluorescent only once bound to the DNA. A fluorescence threshold is established by the machine's program. When the amount of DNA allows the fluorescent probe to exceed this threshold, a PCR cycle number, called “Ct” for “Cycle Threshold”, is obtained. It is this value which forms the basis of the calculations to quantify the DNA relatively. A ratio R is established between the amount of starting DNA of a sample and that of a control, which has not undergone treatment (i.e. […] R=2^-ΔΔCt).

Compound: C[C@]12C[C@H](O)[C@H](O)C[C@H]1C(=O)C=C1C2CC[C@]2(C)[C@@H](C(=O)CSCCO)CC[C@@]12O (stereo partly drawn) [Compound 94, (2S,3R,5R,10R,13R,14S,17S)-2,3,14-trihydroxy-17-[2-(2-hydroxyethylsulfanyl)acetyl]-10,13-dimethyl-2,3,4,5,9,11,12,15,16,17-decahydro-1H-cyclopenta[a]phenanthren-6-one]
- activity at 10 µM [1]: > 130%
- activity [1]: 130 to 140%
- mrna remaining at 10 µM [2]: < 70%

Compound: C=CCCO/N=C(/C)[C@H]1CC[C@@]2(O)C3=CC(=O)[C@@H]4C[C@@H](O)[C@@H](O)C[C@]4(C)C3CC[C@]12C (stereo partly drawn) [Compound 28, (2S,3R,5R,10R,13R,14S,17S)-17-(N-but-3-enoxy-C-methylcarbonimidoyl)-2,3,14-trihydroxy-10,13-dimethyl-2,3,4,5,9,11,12,15,16,17-decahydro-1H-cyclopenta[a]phenanthren-6-one]
- activity at 10 µM [1]: > 130%
- activity [1]: 130 to 140%
- mrna remaining at 10 µM [2]: < 70%

Compound: CC([C@H]1CC[C@@]2(O)C3=CC(=O)[C@@H]4C[C@@H](O)[C@@H](O)C[C@]4(C)C3CC[C@]12C)N(CC(F)F)C(=O)c1ccco1 (stereo partly drawn) [Compound 67, N-(2,2-difluoroethyl)-N-[1-[(2S,3R,5R,10R,13R,14S,17S)-2,3,14-trihydroxy-10,13-dimethyl-6-oxo-2,3,4,5,9,11,12,15,16,17-decahydro-1H-cyclopenta[a]phenanthren-17-yl]ethyl]furan-2-carboxamide]
- activity at 10 µM [1]: > 130%
- activity [1]: 130 to 140%
- mrna remaining at 10 µM [2]: < 70%

Compound: COCC(=O)N(CC1CCCO1)C(C)[C@H]1CC[C@@]2(O)C3=CC(=O)[C@@H]4C[C@@H](O)[C@@H](O)C[C@]4(C)C3CC[C@]12C (stereo partly drawn) [Compound 62, 2-methoxy-N-(tetrahydrofuran-2-ylmethyl)-N-[1-[(2S,3R,5R,10R,13R,14S,17S)-2,3,14-trihydroxy-10,13-dimethyl-6-oxo-2,3,4,5,9,11,12,15,16,17-decahydro-1H-cyclopenta[a]phenanthren-17-yl]ethyl]acetamide]
- activity at 10 µM [1]: > 130%
- activity [1]: 130 to 140%
- mrna remaining at 10 µM [2]: < 70%

Compound: CC([C@H]1CC[C@@]2(O)C3=CC(=O)[C@@H]4C[C@@H](O)[C@@H](O)C[C@]4(C)C3CC[C@]12C)N(CC1CCCO1)C(=O)c1ccco1 (stereo partly drawn) [Compound 63, N-(tetrahydrofuran-2-ylmethyl)-N-[1-[(2S,3R,5R,10R,13R,14S,17S)-2,3,14-trihydroxy-10,13-dimethyl-6-oxo-2,3,4,5,9,11,12,15,16,17-decahydro-1H-cyclopenta[a]phenanthren-17-yl]ethyl]furan-2-carboxamide]
- activity at 10 µM [1]: 110 to 129%
- activity [1]: ~120%
- mrna remaining at 10 µM [2]: < 70%

Compound: C[C@]12C[C@H](O)[C@H](O)C[C@H]1C(=O)C=C1C2CC[C@]2(C)[C@@H](C(=O)CN3CCC(O)C3)CC[C@@]12O (stereo partly drawn) [Compound 86, (2S,3R,5R,10R,13R,14S,17S)-2,3,14-trihydroxy-17-[2-(3-hydroxypyrrolidin-1-yl)acetyl]-10,13-dimethyl-2,3,4,5,9,11,12,15,16,17-decahydro-1H-cyclopenta[a]phenanthren-6-one]
- activity at 10 µM [1]: > 130%
- activity [1]: 130 to 140%
- mrna remaining at 10 µM [2]: < 70%

Compound: CN(C)CCCN(C)CC(=O)[C@H]1CC[C@@]2(O)C3=CC(=O)[C@@H]4C[C@@H](O)[C@@H](O)C[C@]4(C)C3CC[C@]12C (stereo partly drawn) [Compound 91, (2S,3R,5R,10R,13R,14S,17S)-17-[2-(3-dimethylaminopropyl(methyl)amino)acetyl]-2,3,14-trihydroxy-10,13-dimethyl-2,3,4,5,9,11,12,15,16,17-decahydro-1H-cyclopenta[a]phenanthren-6-one]
- activity at 10 µM [1]: 110 to 129%
- activity [1]: ~120%
- mrna remaining at 10 µM [2]: 71 to 85%

Compound: COCCN(C(=O)COC)C(C)[C@H]1CC[C@@]2(O)C3=CC(=O)[C@@H]4C[C@@H](O)[C@@H](O)C[C@]4(C)C3CC[C@]12C (stereo partly drawn) [Compound 41, 2-methoxy-N-(2-methoxyethyl)-N-[1-[(2S,3R,5R,10R,13R,14S,17S)-2,3,14-trihydroxy-10,13-dimethyl-6-oxo-2,3,4,5,9,11,12,15,16,17-decahydro-1H-cyclopenta[a]phenanthren-17-yl]ethyl]acetamide]
- activity at 10 µM [1]: 110 to 129%
- activity [1]: ~120%
- mrna remaining at 10 µM [2]: < 70%

Compound: C[C@]12C[C@H](O)[C@H](O)C[C@H]1C(=O)C=C1C2CC[C@]2(C)[C@@H](C(=O)CN3CCC(CCO)CC3)CC[C@@]12O (stereo partly drawn) [Compound 89, (2S,3R,5R,10R,13R,14S,17S)-2,3,14-trihydroxy-17-[2-[4-(2-hydroxyethyl)-1-piperidyl]acetyl]-10,13-dimethyl-2,3,4,5,9,11,12,15,16,17-decahydro-1H-cyclopenta[a]phenanthren-6-one]
- activity at 10 µM [1]: > 130%
- activity [1]: 130 to 140%
- mrna remaining at 10 µM [2]: < 70%

Compound: C[C@]12C[C@H](O)[C@H](O)C[C@H]1C(=O)C=C1C2CC[C@]2(C)[C@@H](C(=O)CN3CCC(O)CC3)CC[C@@]12O (stereo partly drawn) [Compound 88, (2S,3R,5R,10R,13R,14S,17S)-2,3,14-trihydroxy-17-[2-(4-hydroxy-1-piperidyl)acetyl]-10,13-dimethyl-2,3,4,5,9,11,12,15,16,17-decahydro-1H-cyclopenta[a]phenanthren-6-one]
- activity at 10 µM [1]: 110 to 129%
- activity [1]: ~120%
- mrna remaining at 10 µM [2]: 71 to 85%

Compound: C[C@]12C[C@H](O)[C@H](O)C[C@H]1C(=O)C=C1C2CC[C@]2(C)[C@@H](C(=O)CN3CCOCC3)CC[C@@]12O (stereo partly drawn) [Compound 81, (2S,3R,5R,10R,13R,14S,17S)-2,3,14-trihydroxy-10,13-dimethyl-17-(2-morpholinoacetyl)-2,3,4,5,9,11,12,15,16,17-decahydro-1H-cyclopenta[a]phenanthren-6-one]
- activity at 10 µM [1]: 110 to 129%
- activity [1]: ~120%
- mrna remaining at 10 µM [2]: < 70%

Compound: COCCNC(C)[C@H]1CC[C@@]2(O)C3=CC(=O)[C@@H]4C[C@@H](O)[C@@H](O)C[C@]4(C)C3CC[C@]12C (stereo partly drawn) [Compound 42, (2S,3R,5R,10R,13R,14S,17S)-2,3,14-trihydroxy-17-[1-(2-methoxyethylamino)ethyl]-10,13-dimethyl-2,3,4,5,9,11,12,15,16,17-decahydro-1H-cyclopenta[a]phenanthren-6-one]
- activity at 10 µM [1]: > 130%
- activity [1]: 130 to 140%
